One assay relates to 451Lu melanoma cells. Description: 451Lu melanoma xenograft in athymic nude mice. The assay is classed as in vivo. The note with it: day 35; fisetin 1 mg/animal i.p. thrice weekly; vemurafenib 2 mg/animal oral gavage 5 days/week; control 1179.7 mm^3. As for the experimental part:
Athymic (nu/nu) female nude mice (Harlan, Madison, WI), 4–5 weeks old, were housed under pathogen-free conditions, in the University of Wisconsin Animal Resource Facility, with a 12-hour light/12-hour dark schedule and fed an autoclaved diet ad libitum. All animal experiments were approved by and carried out according to Institutional Animal Care and Use Committee guidelines, University of Wisconsin-Madison, protocol # M005212. Briefly, 1 × 10^6 451Lu cells were injected s/c into each flank of 18 mice randomly divided into 3 groups. The first group received intraperitoneal injection of fisetin 40 mg/kg b.wt. (1 mg/animal) thrice weekly, the second group received vemurafenib by oral gavage 80 mg/kg b.wt. (2 mg/animal) dissolved in DMSO, 5 days/week, while the third group served as the DMSO treated control group. Mice weight and tumor volumes were recorded twice weekly. The animals were sacrificed when tumors reached a volume of 1200 mm^3 in the control group. Samples were collected and stored at −80 °C until further analysis.

Assay [1] deals with T1, RSK1 (Homo sapiens, UniProt Q15418). The assay is described as follows: biochemical. The method, then: In vitro kinase activity profiling of RSK isoforms was performed at Reaction Biology Corporation (Malvern, PA). Briefly, the specific kinase/substrate pair alongwith required cofactors was prepared in reaction buffer.
Target sequence in this assay (Q15418 whole entry, the tested form may be a part, canonical isoform): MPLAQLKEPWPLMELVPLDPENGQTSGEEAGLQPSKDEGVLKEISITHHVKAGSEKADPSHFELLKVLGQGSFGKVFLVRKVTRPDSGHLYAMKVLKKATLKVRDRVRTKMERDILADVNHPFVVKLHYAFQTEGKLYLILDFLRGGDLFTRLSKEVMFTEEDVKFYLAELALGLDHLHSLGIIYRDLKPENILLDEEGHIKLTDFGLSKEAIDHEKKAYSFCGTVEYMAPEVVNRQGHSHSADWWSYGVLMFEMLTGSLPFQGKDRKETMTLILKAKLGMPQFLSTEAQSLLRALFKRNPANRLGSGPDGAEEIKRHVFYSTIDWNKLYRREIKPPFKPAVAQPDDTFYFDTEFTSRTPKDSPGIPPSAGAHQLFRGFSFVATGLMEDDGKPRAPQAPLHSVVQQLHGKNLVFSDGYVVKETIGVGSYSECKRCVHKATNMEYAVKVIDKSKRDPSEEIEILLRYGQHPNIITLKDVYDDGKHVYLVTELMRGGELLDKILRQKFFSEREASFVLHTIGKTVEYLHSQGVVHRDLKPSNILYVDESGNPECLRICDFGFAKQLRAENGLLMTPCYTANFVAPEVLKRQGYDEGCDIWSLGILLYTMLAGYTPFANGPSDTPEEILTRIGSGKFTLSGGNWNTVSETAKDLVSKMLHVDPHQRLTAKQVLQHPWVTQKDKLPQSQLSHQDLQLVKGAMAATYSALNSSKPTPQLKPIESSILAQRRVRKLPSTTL
The target in assay [2] is T1, RSK1. The assay is described as follows: KINOMEscan competition binding assay. Also on record: RSK1 (Kinase Domain 1-N-terminal): Average Kd (nM): 8100; RSK1 (Kinase Domain 2-C-terminal): Average Kd (nM): 2500; purchased KINOMEscan screening platform (San Diego, CA), contract assay. As to conditions: duplicate, top concentration 100 µM. The method, then:
(§1) The KINOMEscan screening platform (San Diego, CA) was employed to quantitatively measure interactions between fisetin and RSK isoforms. Binding constants (Kds) were calculated by measuring the amount of kinase captured on solid support as a function of the test compound concentration, using the Hill equation. The Hill Slope was set to −1. Curves were fitted using a non-linear least square fit with the Levenberg-Marquardt algorithm.

The target of assay [3] is T2, RSK3 (Homo sapiens, UniProt Q15349). Description: Radiometric in vitro kinase activity assay (Reaction Biology). The assay is classed as biochemical. Also on record: purchased Reaction Biology Corporation (Malvern, PA), contract assay. As to conditions: 10-dose, 3-fold serial dilution from 100 μM; 30 μM ATP; read-out: IC50 (M), kinase activity inhibition RSK3.
Target sequence in this assay (Q15349 whole entry): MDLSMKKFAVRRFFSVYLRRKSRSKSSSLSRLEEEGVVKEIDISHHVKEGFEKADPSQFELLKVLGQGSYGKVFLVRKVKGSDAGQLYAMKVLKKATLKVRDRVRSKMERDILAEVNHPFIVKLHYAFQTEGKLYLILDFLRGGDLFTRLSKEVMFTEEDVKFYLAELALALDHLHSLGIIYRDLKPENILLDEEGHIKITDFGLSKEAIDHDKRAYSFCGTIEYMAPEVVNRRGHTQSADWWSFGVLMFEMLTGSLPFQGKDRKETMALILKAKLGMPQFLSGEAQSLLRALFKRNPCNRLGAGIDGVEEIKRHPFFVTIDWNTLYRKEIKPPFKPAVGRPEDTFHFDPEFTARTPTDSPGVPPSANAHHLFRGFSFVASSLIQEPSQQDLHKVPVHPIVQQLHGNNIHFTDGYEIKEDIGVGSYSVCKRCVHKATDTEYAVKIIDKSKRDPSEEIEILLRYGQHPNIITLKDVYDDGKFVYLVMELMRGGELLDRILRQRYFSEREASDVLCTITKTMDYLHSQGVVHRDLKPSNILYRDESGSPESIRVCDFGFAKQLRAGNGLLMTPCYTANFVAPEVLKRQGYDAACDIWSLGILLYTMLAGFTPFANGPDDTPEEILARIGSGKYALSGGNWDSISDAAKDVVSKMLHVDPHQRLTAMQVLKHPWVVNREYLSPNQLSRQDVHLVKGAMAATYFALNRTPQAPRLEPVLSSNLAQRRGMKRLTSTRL
Another assay relates to RSK. The assay is described as follows: Western blot of RSK phosphorylation in A375 cells. The note with it: fisetin 60 µM:24 h, FR180204 10 µM. The assay is classed as cell-based, human. The text has this: (§2) WM35 and A375 cells were obtained from ATCC (Manassas, VA), NCI/ADR-Res cells from NCI (Developmental Therapeutics Program, Frederick, MD) while 451Lu cells were provided by Dr. Meenhard Herlyn (Wistar Institute, PA). Authentication report was provided by ATCC and NCI for post-freeze viability, growth properties, morphology, mycoplasma contamination, species determination (cytochrome c oxidase I assay and STR analysis), sterility test and human pathogenic virus testing. Cells were frozen in aliquots in liquid nitrogen and cultured within six months. 451Lu cells were authenticated upon receipt using STR analysis and all cell lines are regularly tested for mycoplasma contamination using MycoAlert Mycoplasma Detection Kit from Lonza (Basel, Switzerland). WM35, A375 cells were cultured in DMEM, NCI/ADR-Res in RPMI and 451Lu in MEM with 10% FBS and 1% penicillin-streptomycin, at 37 °C with 5% CO2 in a humid environment. After treatment of cells with/without fisetin and/or inhibitors, whole cell lysates were prepared and western blot analysis was performed as described elsewhere.
For orientation: A western blot detects proteins with antibodies after separation by electrophoresis.

The next assay concerns the target ERK1 (Homo sapiens, UniProt P27361). Description: Radiometric in vitro kinase activity assay. The assay is classed as biochemical.
Another assay concerns the target T3, RSK2 binding to YB-1 (Homo sapiens, UniProt P51812).
T3 construct: recombinant human proteins [full length and HIS-tag]; (Life Technologies, Italy); His; purchased Life Technologies, Italy (RSK2); Abnova Corporation, Taiwan (YB-1)
Description: SPR competition assay, RSK2 pre-incubated with fisetin over immobilized YB-1. The note with it: RSK2 100 nM pre-incubated with fisetin 1 and 10 µM. The method, then: (§3) Binding experiments were performed using a Biacore T-200 instrument (Uppsala, Sweden) at 25 °C. 60 response units (RU) of the YB-1 human recombinant protein with GST-tag at N-terminal (51–139 aa, 35 kDa including GST tag, from Abnova Corporation, Taiwan) were directly immobilized on the EDC/NHS activated flow cell2 of the CM5 chip (GE certified) in water. The unoccupied sites were blocked with 1 M ethanol amine. The analytes RPS6KA1 (RSK1, 88.5 kDa) and RPS6KA3 (RSK2, 86.3 kDa) recombinant human proteins [full length and HIS-tag] (Life Technologies, Italy) were flown over the chip at variable concentrations in 10 mM sodium acetate buffer (pH 5.0), with flow rate of 5ul/min, at a single analyte concentration. Binding of analyte to the immobilized protein was monitored in real time to obtain on (ka) and off (kd) rates. The equilibrium constant (KD) was calculated from the observed ka and kd or by steady state kinetics as for the small molecules. Stocks were prepared in 100% DMSO, and further dilutions were made in assay buffer containing 10 mM HEPES buffer (pH 7.4), 150 mM NaCl, 3 mM EDTA, 0.05% P20 (polyoxyethylenesorbitan) and 0.1% BSA. Full kinetics analysis was performed at using analyte concentrations 50 nM (or 100 nM without BSA) to 0, run with serial dilutions, 50, 25, 12.5, 6.25, 3.125, 0 nM, and a flow rate of 30 ul/min. […]

A further assay concerns the target ERK2 (Homo sapiens, UniProt P28482). Description: Radiometric in vitro kinase activity assay. The assay is classed as biochemical.
Assay [4] concerns the target T2, RSK3. Description: KINOMEscan competition binding assay. Also on record: RSK3 (Kinase Domain 1-N-terminal): Average Kd (nM): 5200; RSK3 (Kinase Domain 2-C-terminal): Average Kd (nM): 5800; purchased KINOMEscan screening platform (San Diego, CA), contract assay. The note with it: duplicate, top concentration 100 µM. As for the experimental part:
as §1

The target of assay [5] is T4, RSK2 (Homo sapiens, UniProt P51812). The assay is described as follows: Radiometric in vitro kinase activity assay (Reaction Biology). Format: biochemical. Also on record: purchased Reaction Biology Corporation (Malvern, PA), contract assay. The note with it: 10-dose, 3-fold serial dilution from 100 μM; 30 μM ATP; read-out: IC50 (M), kinase activity inhibition RSK2.
Target sequence in this assay (P51812 whole entry): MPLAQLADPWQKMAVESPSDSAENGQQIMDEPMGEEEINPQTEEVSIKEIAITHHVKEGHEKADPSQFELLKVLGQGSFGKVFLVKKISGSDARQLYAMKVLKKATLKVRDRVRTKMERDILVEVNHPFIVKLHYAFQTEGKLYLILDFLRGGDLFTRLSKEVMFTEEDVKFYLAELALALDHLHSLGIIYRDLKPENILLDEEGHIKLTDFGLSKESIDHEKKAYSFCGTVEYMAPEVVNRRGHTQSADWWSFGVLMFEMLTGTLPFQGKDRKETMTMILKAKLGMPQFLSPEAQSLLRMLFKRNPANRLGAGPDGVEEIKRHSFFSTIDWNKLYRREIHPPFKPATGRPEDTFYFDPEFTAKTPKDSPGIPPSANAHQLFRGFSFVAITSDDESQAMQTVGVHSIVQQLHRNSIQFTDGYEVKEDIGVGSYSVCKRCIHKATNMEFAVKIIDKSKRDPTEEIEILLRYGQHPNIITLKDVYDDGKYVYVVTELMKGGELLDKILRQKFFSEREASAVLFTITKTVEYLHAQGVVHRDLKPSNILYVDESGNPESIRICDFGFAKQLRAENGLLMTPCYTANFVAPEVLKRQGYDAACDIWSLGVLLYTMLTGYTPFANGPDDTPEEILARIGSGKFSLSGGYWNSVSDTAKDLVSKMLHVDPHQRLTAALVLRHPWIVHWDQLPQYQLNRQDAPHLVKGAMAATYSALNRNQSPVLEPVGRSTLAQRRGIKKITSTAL
Another assay concerns YB-1. Description: Western blot/immunocytochemistry of YB-1 in melanoma cells. Format: cell-based, human.
Excerpt: as §2, with “After treatment of cells with/without fisetin and/or inhibitors, whole cell lysates were prepared and western blot analysis was performed as described elsewhere.” left out
For immunohistochemistry, sections from melanoma constructs, fixed in 10% formalin were deparaffinized and rehydrated in xylene and a graded series of ethanol and blocked in 2% goat serum/PBS for 30 min. After incubation with specific primary antibody overnight and biotinylated secondary antibody for 1 h, slides were counterstained with hematoxylin and immunoreactive complexes were detected using 3,3′-diaminobenzidene (Dako Corp., CA). […]

In assay [6] the target is T4, RSK2. The assay is described as follows: KINOMEscan competition binding assay. Also on record: purchased KINOMEscan screening platform (San Diego, CA), contract assay. The method, then: as §1
A further assay concerns NCI/ADR-Res cells. Description: MTT cell viability. The assay is classed as cell-based, human. The note with it: NCI/ADR-Res ovarian tumor cells. As for the experimental part: Cells seeded in 24-well plates were treated at 70% confluence with/without fisetin and/or vemurafenib for 24 hours. Cell viability was determined by MTT assay as described.
In assay [7] the target is T5, YB-1 human recombinant protein (Homo sapiens, UniProt P67809).
T5 construct: (51–139 aa, 35 kDa including GST tag, from Abnova Corporation, Taiwan); purchased Abnova Corporation, Taiwan
Description: SPR (Biacore) full kinetics, RSK analytes over immobilized YB-1. As to conditions: without BSA; analyte 100-0 nM; 25 °C; read-out: KD for binding to immobilized YB-1. The method, then:
as §3

Where two headings read alike, the source gives them in different places.

This note sets out measurements from publication PMC6200766, “Fisetin targets YB-1/RSK axis independent of its effect on ERK signaling: insights from in vitro and in vivo melanoma models” (Scientific Reports, 2018).

Chain of ERK1 (P27361 whole entry): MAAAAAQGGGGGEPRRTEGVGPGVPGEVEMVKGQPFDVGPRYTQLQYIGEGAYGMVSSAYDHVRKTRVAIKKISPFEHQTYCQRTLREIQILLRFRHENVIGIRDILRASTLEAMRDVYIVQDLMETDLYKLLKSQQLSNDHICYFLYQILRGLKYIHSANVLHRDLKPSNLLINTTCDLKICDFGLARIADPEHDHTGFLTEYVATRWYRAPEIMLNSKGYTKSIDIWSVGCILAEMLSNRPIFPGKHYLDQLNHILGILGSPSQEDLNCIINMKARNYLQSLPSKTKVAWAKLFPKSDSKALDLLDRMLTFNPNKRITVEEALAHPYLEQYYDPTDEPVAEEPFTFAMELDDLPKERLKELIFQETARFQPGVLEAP
T5 sequence (P67809 51-139): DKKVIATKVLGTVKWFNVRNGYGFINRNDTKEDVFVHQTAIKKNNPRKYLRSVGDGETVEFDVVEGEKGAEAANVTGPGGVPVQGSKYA
T3 sequence (P51812 whole entry): as the sequence (P51812 whole entry) above
Chain of ERK2 (P28482 whole entry, the tested form may be a part): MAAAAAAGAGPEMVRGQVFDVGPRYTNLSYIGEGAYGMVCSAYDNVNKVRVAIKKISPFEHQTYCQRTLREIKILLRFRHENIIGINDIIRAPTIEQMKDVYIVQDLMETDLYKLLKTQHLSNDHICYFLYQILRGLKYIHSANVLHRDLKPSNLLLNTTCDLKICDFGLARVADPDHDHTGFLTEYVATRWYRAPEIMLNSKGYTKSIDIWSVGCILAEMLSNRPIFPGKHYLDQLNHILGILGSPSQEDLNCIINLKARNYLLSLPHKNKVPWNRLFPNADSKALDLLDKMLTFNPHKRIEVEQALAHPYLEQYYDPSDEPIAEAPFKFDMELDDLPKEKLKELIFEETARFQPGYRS

In the assay on 451Lu melanoma cells, `O=c1c(O)c(-c2ccc(O)c(O)c2)oc2cc(O)ccc12` [Fisetin, fisetin] had an average tumor volume of 789.3 mm^3. Besides, the IC50 on RSK1 [1] is 3.79 µM; at RSK3 [3], 8.91e-07 M; against ERK1 it was 8.5 µM; on ERK2, 9.88 µM; on RSK2 [5] it was 2.78e-06 M. Besides, the Kd on RSK1 [2] (C-terminal kinase domain, read-out: Average Kd, RSK1 (Kinase Domain 2-C-terminal)) stood at 2.5 µM; on RSK1 [2] (N-terminal kinase domain, read-out: Average Kd, RSK1 (Kinase Domain 1-N-terminal)), 8.1 µM; at RSK3 [4] (C-terminal kinase domain, read-out: Average Kd, RSK3 (Kinase Domain 2-C-terminal)), 5.8 µM; at RSK3 [4] (N-terminal kinase domain, read-out: Average Kd, RSK3 (Kinase Domain 1-N-terminal)), 5.2 µM; on RSK2 [6] (C-terminal kinase domain, duplicate, top concentration 100 µM, read-out: Average Kd, RSK2 (Kinase Domain 2-C-terminal)), 8.4 µM; at RSK2 [6] (N-terminal kinase domain, duplicate, top concentration 100 µM, read-out: Average Kd, RSK2 (Kinase Domain 1-N-terminal)), 0.05 µM. The Kd on RSK2 [6] (single replicate curve, C-terminal kinase domain, read-out: Kd, RSK2(Kin.Dom.2-C-terminal), Replicate ID = 1) amounted to 8.1 µM. The “RSK phosphorylation at threonine359/serine363” value with RSK is recorded as “significant decrease”. For the same compound, the “effect on binding of RSK2 to YB-1” value on RSK2 binding to YB-1 is “promote its binding to YB-1”. In addition, the “YB-1 phosphorylation and total protein levels” value in the assay with YB-1 (A375 and 451Lu cells, 0–80 µM, 24 h) was “dose-dependent decrease in YB-1 phosphorylation”. In the assay with NCI/ADR-Res cells, the cell viability result is listed as “reduced viability”.

On to `CC(C)CCN1c2nc(Nc3cc(F)c(O)c(F)c3)ncc2N(C)C(=O)C1C` (stereo not drawn) [BI-D1870, reference compound], for which the YB-1 expression entry with YB-1 (A375 cells, in comparison to fisetin (60 μM:24 h)) is reported as “modest effect”.

Turning to `Nc1[nH]nc2nnc(-c3c(-c4ccccc4)nn4ccccc34)cc12` [FR180204, reference compound], the “RSK phosphorylation at threonine359/serine363” value in the assay on RSK is on record as “significant decrease”.

The compound `CCCS(=O)(=O)Nc1ccc(F)c(C(=O)c2c[nH]c3ncc(-c4ccc(Cl)cc4)cc23)c1F` [vemurafenib, reference compound] displayed an average tumor volume in the assay with 451Lu melanoma cells of 641.7 mm^3.

Consider “RSK2: recombinant human protein RPS6KA3, full length, HIS-tag, 86.3 kDa; SPR analyte”, for which the Kd in assay [7] was determined as 0.534 µM.

As a reminder, the IC50 is the concentration needed to halve the response being measured. A word on the Kd: it is the free concentration of one partner at which half of the binding sites on the other are occupied at equilibrium, for simple one-to-one binding.
